Laboratory results taken from patent US10017477B2, “Janus kinase inhibitors and uses thereof” (Dana-Farber Cancer Institute, Inc., priority 2014, dated 2018).
Several values for one entry are separate records, joined by “and”; a condition that tells them apart may be missing. Identical values can stand only once. Like-named read-outs stand apart in the source and are kept apart here.

Legend:
[1] = biological target: T1, Ba/F3 ABL (Homo sapiens, UniProt P00519); experiment: CellTiter-Glo cell proliferation, Ba/F3 ABL; format: cell-based, murine; conditions: 72 hours; read-out: Ba/F3 IC50 ABL
T1 construct: candidates: BCR or TEL (ETV6)
Experimental: (§1) CellTiter-Glo® Luminescent cell viability assay (Promega) was used to assess cell survival following treatment with the compounds described herein. Cells were seeded into 384 well plates with the EL406 Combination Washer Dispenser (BioTek Instruments, Inc.), and the compounds were injected into the cells culture media with the JANUS Automated Workstation (PerkinElmer Inc.). Cells were treated with a series diluted inhibitors (20 to 0.04 μM) for 72 hours at 37° C. Luminescent measurement is performed using the 2104 Envision® Multilabel Reader (PerkinElmer Inc.). The cell lines employed include Ba/F3 (a murine interleukin-3 dependent pro-B cell line), NKL (a Natural Killer Cell Lymphoma (NKCL) cell line), CMK (an Acute Megakaryoblastic Leukemia (AMKL) cell line).

[2] = biological target: T2, Ba/F3 JAK3 (Homo sapiens, UniProt P52333); experiment: CellTiter-Glo cell proliferation, Ba/F3 JAK3; format: cell-based, murine; conditions: 72 hours, read-out: Ba/F3 IC50 JAK3
T2 construct: candidate: TEL (ETV6) N-terminal oligomerisation domain
T2 sequence (P52333 1-1124): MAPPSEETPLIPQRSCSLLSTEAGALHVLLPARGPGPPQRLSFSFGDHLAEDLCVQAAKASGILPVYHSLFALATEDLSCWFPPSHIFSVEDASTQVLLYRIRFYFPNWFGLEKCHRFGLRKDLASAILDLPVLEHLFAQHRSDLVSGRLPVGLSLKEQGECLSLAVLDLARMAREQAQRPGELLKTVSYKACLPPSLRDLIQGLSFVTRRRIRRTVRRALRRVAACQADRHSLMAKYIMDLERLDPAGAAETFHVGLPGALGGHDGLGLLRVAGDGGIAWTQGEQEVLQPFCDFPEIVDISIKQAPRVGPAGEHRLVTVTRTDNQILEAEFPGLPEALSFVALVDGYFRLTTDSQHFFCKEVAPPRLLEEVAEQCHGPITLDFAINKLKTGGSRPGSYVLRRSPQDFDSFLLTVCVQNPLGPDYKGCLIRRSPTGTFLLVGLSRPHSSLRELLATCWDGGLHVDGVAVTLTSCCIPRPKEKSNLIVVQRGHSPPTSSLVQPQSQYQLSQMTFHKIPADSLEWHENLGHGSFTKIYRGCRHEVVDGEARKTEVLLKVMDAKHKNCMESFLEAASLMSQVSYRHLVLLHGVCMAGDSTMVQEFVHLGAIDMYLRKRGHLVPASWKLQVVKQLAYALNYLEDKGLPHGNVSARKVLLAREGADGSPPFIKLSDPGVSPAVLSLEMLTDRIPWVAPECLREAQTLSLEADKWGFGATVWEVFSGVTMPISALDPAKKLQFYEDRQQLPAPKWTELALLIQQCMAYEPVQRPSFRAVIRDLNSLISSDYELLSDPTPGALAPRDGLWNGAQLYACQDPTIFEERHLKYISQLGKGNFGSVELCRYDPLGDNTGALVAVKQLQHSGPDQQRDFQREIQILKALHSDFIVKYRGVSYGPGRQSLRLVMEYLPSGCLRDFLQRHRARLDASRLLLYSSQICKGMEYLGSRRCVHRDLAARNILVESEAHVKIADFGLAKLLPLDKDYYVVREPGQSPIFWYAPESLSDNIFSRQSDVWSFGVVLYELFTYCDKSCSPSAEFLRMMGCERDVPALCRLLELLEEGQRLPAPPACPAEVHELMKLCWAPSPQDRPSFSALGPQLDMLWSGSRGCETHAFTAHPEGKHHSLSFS

[3] = biological target: T3, JAK3 (Homo sapiens, UniProt P52333); experiment: INVITROGEN Select Screening assay, enzymatic IC50, JAK3; format: biochemical
T3 construct: purchased INVITROGEN (Select Screening assay service)
T3 sequence (P52333 1-1124): T2 sequence (P52333 1-1124)

[4] = biological target: T4, Ba/F3 JAK2 (Homo sapiens, UniProt O60674); experiment: CellTiter-Glo cell proliferation, Ba/F3 JAK2; format: cell-based, murine; conditions: 72 hours; read-out: Ba/F3 IC50 JAK2
T4 construct: candidate: TEL (ETV6) N-terminal oligomerisation domain

[5] = biological target: T5, Ba/F3 TYK2 (Homo sapiens, UniProt P29597); experiment: CellTiter-Glo cell proliferation, Ba/F3 TYK2; format: cell-based, murine; conditions: 72 hours; read-out: Ba/F3 IC50 TYK2
T5 construct: The likeliest candidate is TEL (ETV6) N-terminal oligomerisation domain fused to the TYK2 kinase domain; BCR, another partner, or no partner are also possible

[6] = biological target: T6, Ba/F3 JAK1 (Homo sapiens, UniProt P23458); experiment: CellTiter-Glo cell proliferation, Ba/F3 JAK1; format: cell-based, murine; conditions: 72 hours; read-out: Ba/F3 IC50 JAK1
T6 construct: candidate: TEL (ETV6) N-terminal oligomerisation domain

[7] = biological target: T7, AURKB (Homo sapiens, UniProt Q96GD4); experiment: INVITROGEN Select Screening assay, enzymatic IC50, AURKB; format: biochemical
T7 construct: purchased INVITROGEN (Select Screening assay service)
Excerpt: (§2) The in vitro activity of the compounds described herein in inhibiting JAK3 and other kinases were obtained using an INVITROGEN Select Screening assay as known in the art.

[8] = biological target: T8, AURKA (Homo sapiens, UniProt O14965); experiment: INVITROGEN Select Screening assay, enzymatic IC50, AURKA; format: biochemical
T8 construct: purchased INVITROGEN (Select Screening assay service)
T8 sequence (O14965 1-403): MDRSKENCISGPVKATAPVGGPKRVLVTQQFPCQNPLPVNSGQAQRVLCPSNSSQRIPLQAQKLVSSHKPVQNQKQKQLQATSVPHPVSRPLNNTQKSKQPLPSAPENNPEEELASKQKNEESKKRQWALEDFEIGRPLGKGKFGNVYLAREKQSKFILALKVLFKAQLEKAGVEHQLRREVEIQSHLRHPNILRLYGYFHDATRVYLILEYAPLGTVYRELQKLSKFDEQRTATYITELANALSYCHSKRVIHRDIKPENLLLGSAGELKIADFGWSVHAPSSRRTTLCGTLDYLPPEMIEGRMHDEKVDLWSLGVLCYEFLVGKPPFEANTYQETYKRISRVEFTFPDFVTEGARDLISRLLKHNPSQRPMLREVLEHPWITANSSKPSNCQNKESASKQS
Excerpt: as §2

[9] = system: CMK (an Acute Megakaryoblastic Leukemia (AMKL) cell line); experiment: CellTiter-Glo cell proliferation, CMK cancer cell line; format: cell-based
Experimental: as §1

[10] = Aqueous solubility; format: physicochemical; conditions: aqueous medium; at 25° C.
[11] = system: EGFR (T790M) dependent Ba/F3; experiment: Proliferation of EGFR (T790M) dependent Ba/F3; format: cell-based, murine; conditions: Mus musculus, BaF3; at 200 nM
Experimental: as §1

[12] = Pharmacokinetics in mouse; format: in vivo; conditions: blood
[13] = system: IL-4 signaling (JAK3 dependent); experiment: Profiling on primary immune cells, IL-4 signaling; format: cell-based
[14] = system: NKL (a Natural Killer Cell Lymphoma (NKCL) cell line); experiment: CellTiter-Glo cell proliferation, NKL cancer cell line; format: cell-based
Experimental: as §1

T1 sequence (P00519 whole entry, change not shown): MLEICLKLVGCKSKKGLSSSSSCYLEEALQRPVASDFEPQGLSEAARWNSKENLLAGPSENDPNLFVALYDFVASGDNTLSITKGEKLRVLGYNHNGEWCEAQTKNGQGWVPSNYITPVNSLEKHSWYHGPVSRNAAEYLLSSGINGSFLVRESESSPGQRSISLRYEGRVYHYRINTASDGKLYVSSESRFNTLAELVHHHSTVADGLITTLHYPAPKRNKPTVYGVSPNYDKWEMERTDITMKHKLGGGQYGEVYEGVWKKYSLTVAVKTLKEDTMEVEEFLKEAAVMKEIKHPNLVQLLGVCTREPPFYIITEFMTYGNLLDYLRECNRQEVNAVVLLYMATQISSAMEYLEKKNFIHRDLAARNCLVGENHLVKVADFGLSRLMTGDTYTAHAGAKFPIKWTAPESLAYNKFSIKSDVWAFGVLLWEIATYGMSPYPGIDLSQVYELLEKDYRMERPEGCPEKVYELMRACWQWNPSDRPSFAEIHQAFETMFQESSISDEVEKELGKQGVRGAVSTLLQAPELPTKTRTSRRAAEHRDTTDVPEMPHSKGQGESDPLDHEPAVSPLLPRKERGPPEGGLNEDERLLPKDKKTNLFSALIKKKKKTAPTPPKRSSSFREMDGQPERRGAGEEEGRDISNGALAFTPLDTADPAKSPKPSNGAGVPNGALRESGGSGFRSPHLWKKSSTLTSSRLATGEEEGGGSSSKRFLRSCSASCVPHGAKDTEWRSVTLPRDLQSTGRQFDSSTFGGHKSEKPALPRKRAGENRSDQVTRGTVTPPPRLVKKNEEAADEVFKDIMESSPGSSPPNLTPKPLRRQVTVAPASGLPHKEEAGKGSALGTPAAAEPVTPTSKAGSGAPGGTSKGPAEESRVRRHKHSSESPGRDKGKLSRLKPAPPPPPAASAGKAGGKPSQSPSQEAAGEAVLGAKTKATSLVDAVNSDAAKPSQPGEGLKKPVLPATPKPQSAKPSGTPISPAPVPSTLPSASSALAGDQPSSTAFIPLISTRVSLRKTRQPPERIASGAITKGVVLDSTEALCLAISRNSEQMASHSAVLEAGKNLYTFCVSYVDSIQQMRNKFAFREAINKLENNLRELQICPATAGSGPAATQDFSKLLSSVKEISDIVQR
T6 sequence (P23458 whole entry, change not shown, the tested form may be a part): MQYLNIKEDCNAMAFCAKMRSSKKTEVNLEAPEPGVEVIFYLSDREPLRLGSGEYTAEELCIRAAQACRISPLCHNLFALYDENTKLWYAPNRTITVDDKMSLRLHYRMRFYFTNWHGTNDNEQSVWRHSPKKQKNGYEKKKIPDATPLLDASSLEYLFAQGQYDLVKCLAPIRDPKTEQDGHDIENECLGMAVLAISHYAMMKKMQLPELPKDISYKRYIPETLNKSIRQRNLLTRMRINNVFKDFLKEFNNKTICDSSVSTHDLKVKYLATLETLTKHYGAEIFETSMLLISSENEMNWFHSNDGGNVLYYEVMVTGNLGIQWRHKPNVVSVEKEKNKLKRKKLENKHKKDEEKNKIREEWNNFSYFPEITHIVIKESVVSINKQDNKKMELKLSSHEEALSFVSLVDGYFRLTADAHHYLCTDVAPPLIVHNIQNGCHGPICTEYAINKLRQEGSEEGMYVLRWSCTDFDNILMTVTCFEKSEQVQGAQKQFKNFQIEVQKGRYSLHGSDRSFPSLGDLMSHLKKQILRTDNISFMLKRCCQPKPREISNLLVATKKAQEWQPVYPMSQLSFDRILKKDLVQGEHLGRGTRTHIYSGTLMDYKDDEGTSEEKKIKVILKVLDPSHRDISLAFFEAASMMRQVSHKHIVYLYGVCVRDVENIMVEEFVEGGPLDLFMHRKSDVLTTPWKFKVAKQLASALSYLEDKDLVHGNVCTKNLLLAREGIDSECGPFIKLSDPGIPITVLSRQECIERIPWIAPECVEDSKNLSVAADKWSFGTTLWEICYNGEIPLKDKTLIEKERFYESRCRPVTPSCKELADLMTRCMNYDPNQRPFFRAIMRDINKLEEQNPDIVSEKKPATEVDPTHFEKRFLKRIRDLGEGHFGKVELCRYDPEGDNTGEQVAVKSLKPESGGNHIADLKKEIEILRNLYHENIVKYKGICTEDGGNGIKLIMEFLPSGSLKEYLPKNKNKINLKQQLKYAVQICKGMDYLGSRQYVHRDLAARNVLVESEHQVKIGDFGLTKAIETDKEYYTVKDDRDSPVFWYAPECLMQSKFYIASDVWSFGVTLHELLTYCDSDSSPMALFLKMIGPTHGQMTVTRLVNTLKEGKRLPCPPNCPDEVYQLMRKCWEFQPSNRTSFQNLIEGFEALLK
T4 sequence (O60674 whole entry, change not shown, the tested form may be a part): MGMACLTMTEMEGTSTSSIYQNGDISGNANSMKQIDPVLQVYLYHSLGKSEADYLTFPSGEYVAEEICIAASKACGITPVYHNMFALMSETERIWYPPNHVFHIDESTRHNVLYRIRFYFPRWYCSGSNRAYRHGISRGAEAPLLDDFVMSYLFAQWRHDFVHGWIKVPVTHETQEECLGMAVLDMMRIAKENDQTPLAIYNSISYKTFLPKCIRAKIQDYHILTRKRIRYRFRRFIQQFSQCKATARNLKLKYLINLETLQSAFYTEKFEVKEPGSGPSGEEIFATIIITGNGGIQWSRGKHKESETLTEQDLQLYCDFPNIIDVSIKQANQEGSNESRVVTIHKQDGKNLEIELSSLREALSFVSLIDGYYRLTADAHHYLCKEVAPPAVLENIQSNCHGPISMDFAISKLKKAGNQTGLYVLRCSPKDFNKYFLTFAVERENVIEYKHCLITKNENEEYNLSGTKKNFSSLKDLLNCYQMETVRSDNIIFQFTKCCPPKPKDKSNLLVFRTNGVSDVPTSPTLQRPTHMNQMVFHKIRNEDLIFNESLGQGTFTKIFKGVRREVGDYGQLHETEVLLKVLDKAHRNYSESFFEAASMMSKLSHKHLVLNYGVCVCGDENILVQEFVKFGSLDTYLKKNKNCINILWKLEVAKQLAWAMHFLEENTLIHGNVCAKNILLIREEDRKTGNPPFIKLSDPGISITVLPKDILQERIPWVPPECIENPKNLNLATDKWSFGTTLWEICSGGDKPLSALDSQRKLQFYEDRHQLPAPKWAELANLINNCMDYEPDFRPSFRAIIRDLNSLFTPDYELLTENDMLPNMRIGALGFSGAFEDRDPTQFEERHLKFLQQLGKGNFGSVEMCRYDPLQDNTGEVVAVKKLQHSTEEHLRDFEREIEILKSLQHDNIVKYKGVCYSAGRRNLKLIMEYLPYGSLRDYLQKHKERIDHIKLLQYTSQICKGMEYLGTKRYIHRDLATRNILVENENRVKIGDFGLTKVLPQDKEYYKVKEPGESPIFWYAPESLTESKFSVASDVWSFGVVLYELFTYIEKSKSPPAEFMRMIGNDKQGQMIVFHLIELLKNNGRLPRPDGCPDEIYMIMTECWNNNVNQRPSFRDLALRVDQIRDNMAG
T5 sequence (P29597 whole entry, change not shown, the tested form may be a part): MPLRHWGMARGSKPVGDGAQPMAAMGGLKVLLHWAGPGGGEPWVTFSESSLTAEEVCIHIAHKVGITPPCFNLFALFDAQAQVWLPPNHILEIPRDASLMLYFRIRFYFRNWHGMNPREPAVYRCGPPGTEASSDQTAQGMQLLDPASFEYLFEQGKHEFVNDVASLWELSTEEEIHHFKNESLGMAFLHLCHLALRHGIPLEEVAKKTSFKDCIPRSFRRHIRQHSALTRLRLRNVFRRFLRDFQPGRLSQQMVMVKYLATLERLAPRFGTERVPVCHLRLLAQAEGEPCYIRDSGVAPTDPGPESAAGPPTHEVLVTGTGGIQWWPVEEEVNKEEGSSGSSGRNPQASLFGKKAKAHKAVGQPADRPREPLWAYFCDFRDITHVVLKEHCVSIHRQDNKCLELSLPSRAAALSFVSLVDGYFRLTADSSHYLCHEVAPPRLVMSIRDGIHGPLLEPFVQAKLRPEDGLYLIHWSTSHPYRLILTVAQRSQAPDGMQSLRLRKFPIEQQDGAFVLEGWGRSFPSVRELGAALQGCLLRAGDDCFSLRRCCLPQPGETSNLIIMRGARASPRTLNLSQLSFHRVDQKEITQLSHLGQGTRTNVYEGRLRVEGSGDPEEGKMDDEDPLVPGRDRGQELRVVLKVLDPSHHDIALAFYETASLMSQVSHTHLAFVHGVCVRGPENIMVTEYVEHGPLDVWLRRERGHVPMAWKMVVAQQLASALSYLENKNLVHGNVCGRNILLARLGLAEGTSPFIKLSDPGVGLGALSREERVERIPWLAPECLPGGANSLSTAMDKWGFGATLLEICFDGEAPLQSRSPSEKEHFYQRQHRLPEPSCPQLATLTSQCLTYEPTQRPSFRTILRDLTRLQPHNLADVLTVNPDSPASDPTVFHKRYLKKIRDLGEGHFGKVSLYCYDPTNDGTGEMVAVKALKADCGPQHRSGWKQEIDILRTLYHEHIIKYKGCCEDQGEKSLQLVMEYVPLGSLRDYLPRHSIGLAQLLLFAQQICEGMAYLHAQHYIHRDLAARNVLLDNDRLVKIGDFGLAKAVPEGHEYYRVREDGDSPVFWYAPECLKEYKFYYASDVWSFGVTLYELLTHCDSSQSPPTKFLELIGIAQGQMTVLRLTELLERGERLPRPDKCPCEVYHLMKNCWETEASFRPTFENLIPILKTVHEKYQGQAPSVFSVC
T7 sequence (Q96GD4 whole entry): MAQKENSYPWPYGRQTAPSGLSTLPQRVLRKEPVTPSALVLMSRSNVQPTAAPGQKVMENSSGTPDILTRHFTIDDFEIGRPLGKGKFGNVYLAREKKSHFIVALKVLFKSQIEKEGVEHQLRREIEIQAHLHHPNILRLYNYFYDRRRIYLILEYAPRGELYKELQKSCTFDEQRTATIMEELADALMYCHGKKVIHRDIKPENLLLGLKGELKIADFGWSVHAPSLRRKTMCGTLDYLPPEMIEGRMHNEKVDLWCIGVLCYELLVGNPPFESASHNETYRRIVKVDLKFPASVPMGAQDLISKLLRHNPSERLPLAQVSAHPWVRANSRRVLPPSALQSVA

GI50 [1] [µM]	GI50 [2]	IC50 [3] [µM]	GI50 [4] [µM]	GI50 [5] [µM]	GI50 [6] [µM]	SMILES	other results
0.158	0.0106 µM	0.000689	0.2	0.144	0.172	C=CC(=O)Nc1ccc(CNc2nc(Nc3ccc(N4CCN(C)CC4)cc3)ncc2Cl)cc1 [Compound 15]	
22.4						C=CC(=O)Nc1ccc(CNc2cc(Nc3ccc(N4CCN(C)CC4)cc3)ncn2)cc1 [Compound 32]	
> 50	0.1 µM	0.0205	> 50	> 50	> 50	C=CC(=O)Nc1cccc(CNc2nc(Nc3cc(F)c(C4CCOCC4)c(F)c3)ncc2Cl)c1 [Compound 50]	
		0.0332				C=CC(=O)Nc1ccc(CNc2nc(Nc3ccc(N4CCN(C)CC4)cc3OC)ncc2Br)cc1 [Compound 3]	
		5.42				CCC(=O)Nc1ccc(CNc2nc(Nc3ccc(N4CCN(C)CC4)cc3OC)ncc2Cl)cc1 [Compound 5]	

Continued, molecule first:

SMILES	GI50 [1] [µM]	GI50 [2]	IC50 [3] [µM]	GI50 [4] [µM]	GI50 [5] [µM]	GI50 [6] [µM]	other results
C=CC(=O)Nc1ccc(CNc2nc(Nc3ccc(N4CCN(C)CC4)c(F)c3)ncc2Cl)cc1 [Compound 16]	0.453	0.0178 µM	0.00279	0.538	0.284	0.379	
C=CC(=O)Nc1ccc(CN2C(=O)N(C)Cc3cnc(Nc4ccc(N5CCN(C)CC5)cc4)nc32)cc1 [Compound 35]	8.84	0.88 µM	0.0304	14.6	10.1	87.6	
C=CC(=O)Nc1ccc(CNc2nc(Nc3ccc(N4CCOCC4)cc3)ncc2Cl)cc1 [Compound 13]							IC50 [7]: 0.835 µM; IC50 [8]: 0.173 µM
C=CC(=O)Nc1cccc(CNc2cc(Nc3ccc(N4CCN(C)CC4)cc3OC)ncn2)c1 [Compound 25]	4.55	0.246 µM	0.0153	2.3	1.53	2.88	
C=CC(=O)Nc1cccc(CNc2nc(Nc3cc(OC)c(N4CCN(C)CC4)cc3OC)ncc2Cl)c1 [Compound 57]			0.17				
C=CC(=O)Nc1ccc(CN2C(=O)NCc3cnc(Nc4ccc(N5CCN(C)CC5)cc4)nc32)cc1 [Compound 34]	29.2	0.576 µM	0.00121	30.1	29.5	> 10	
C=CC(=O)Nc1cccc(CN2C(=O)N(C)Cc3cnc(Nc4cnn(C)c4)nc32)c1 [Compound 43]	> 50	0.4 µM	0.0209	> 50	50.1	14	
C=CC(=O)Nc1cccc(CNc2nc(Nc3cnn(CCOCCOCCOCCNC(=O)CCCC[C@@H]4SC[C@@H]5NC(=O)N[C@@H]54)c3)ncc2Cl)c1 [Compound 93]	> 50			> 50	15.4	18.7	
C=CC(=O)Nc1ccc(CNc2nc(Nc3ccc(N4CCOCC4)c(F)c3)ncc2Cl)cc1 [Compound 14]	2.52	0.0305 µM	0.0035	1.87	0.607	1.29	IC50 [7]: 1.31 µM; IC50 [8]: 0.279 µM
C=CC(=O)Nc1cccc(CNc2nc(Nc3ccc(N4CCN(C)CC4)cc3OC)ncc2Cl)c1 [Compound 2, N-(3-(((5-chloro-2-((2-methoxy-4-(4-methylpiperazin-1-yl)phenyl)amino)pyrimidin-4-yl)amino)methyl)phenyl)acrylamide]		0.0604 µM and 0.0626 µM					IC50 ([9]; 72 hours, read-out: Cancer cell lines IC50 CMK): 8.28 µM; anti-proliferative potency on AMKL cell line (in words) ([9]; cell line with activating mutation A572V of JAK3): doesn't shown anti-proliferative potency; GI50 ([2]; listed as compound 2): 0.06 µM; solubility [10]: > 250 µM; inhibition at 0.2 µM [11]: > 90%; Cmax ([12]; PO dose at 10 mg/kg): 0.294 µg/mL; Tmax ([12]; PO dose at 10 mg/kg): 2 h; bioavailability ([12]; PO dose at 10 mg/kg): 23%; Vd ([12]; intravenous dose at 1 mg/kg, read-out: Vdss): 1.2 L/kg; effect on IL-4 signaling [13]: blocks IL-4 signaling; IC50 ([14]; 72 hours, read-out: Cancer cell lines IC50 NKL): 0.0197 µM; EC50 ([14]; IL-2 dependent NKL cell line, read-out: anti-proliferative potency EC50, NKL): 0.02 µM
C=CC(=O)Nc1cccc(CN2CCc3cnc(Nc4cnn(C)c4)nc32)c1 [Compound 48]	> 50	> 50 µM	8.04	18.1	8.85	56.4	
C=CC(=O)Nc1cccc(CNc2nc(Nc3ccc(N4CCN(C)CC4)cc3OC)ncc2C2CC2)c1 [Compound 91]			0.22				
C=CC(=O)Nc1ccc(CNc2nc(Nc3ccc(N4CCN(C)CC4)cc3OC)ncc2C(F)(F)F)cc1 [Compound 4]			0.0572				
C=CC(=O)Nc1cccc(CNc2cc(Nc3cnn(C)c3)ncn2)c1 [Compound 38]					78		
C=CC(=O)Nc1cccc(CNc2nc(Nc3cc(Cl)c(C4CCOCC4)c(Cl)c3)ncc2Cl)c1 [Compound 45]			0.1				
